Experimental data taken from PMC12682947, “Identification of New KCNT1‐Epilepsy Drugs by In Silico, Cell, and Drosophila Modeling” (Annals of Neurology, 2025).
Counter-ions that a name gives are not always drawn.

Target: T1, R928C mutant KCNT1 channels (Homo sapiens, UniProt Q5JUK3, R909C)
T1 construct: YFP-6His; expressed in transfected cells; host or cells: HEK293T
T1 sequence (Q5JUK3 1-1235 isoform Q5JUK3-3 R928C): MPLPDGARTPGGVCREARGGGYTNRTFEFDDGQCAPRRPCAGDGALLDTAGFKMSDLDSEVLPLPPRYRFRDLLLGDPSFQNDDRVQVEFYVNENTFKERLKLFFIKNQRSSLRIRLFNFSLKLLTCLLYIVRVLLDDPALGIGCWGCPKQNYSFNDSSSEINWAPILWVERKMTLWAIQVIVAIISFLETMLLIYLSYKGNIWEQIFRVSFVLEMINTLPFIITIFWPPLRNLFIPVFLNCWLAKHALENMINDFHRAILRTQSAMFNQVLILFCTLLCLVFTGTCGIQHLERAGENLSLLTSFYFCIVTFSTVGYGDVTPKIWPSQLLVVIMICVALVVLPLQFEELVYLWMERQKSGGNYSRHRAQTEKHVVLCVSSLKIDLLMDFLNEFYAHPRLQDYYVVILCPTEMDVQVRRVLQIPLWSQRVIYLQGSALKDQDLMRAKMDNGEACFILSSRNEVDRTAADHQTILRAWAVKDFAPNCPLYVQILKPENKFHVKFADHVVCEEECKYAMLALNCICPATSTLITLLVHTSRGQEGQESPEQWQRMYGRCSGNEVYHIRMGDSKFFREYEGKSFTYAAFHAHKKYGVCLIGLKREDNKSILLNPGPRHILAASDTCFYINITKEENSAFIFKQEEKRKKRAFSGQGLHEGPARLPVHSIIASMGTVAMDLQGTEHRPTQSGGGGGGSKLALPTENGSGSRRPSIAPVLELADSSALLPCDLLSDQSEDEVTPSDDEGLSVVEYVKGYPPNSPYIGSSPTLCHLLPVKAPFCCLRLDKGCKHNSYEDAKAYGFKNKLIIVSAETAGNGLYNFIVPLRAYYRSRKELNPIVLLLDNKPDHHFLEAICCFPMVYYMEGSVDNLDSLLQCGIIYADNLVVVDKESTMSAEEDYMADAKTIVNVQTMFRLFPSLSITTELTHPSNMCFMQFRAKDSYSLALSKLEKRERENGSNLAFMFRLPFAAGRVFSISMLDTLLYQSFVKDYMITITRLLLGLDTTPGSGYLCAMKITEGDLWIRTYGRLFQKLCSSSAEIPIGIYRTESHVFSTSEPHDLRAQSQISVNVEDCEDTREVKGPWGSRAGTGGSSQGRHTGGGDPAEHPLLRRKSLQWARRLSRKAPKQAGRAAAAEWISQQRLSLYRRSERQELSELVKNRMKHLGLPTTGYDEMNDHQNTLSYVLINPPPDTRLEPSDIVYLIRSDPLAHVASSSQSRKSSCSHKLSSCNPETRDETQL
Assay: Inside-out patch clamp of HEK293T cells expressing R928C KCNT1
Assay type: cell-based
Conditions: inside-out patches, mean ± SEM
Experimental: The CHO cells were cultured in Dulbecco's modified Eagle's Medium (ThermoFisher, UK) supplemented with 10% (v/v) fetal bovine serum, 50 U/ml penicillin and 0.05 mg/ml streptomycin, and incubated at 37°C in 5% CO2 atmosphere. For whole cell recording of WT/Y796H KCNT1, CHO cells were transiently co‐transfected with concatemeric WT/Y796H and EYFP, as described previously.[29] For electrophysiological experiments, cells were plated onto borosilicate glass cover slips and used 2 to 4 days later. Human embryonic kidney 293T cells (HEK293T) were cultured in the same manner, but with medium supplemented with 2 mM L‐glutamine, and 1% (v/v) nonessential amino acids. For excised inside‐out recording of homomeric WT or mutant YFP‐tagged KCNT1, HEK293T cells plated on glass cover slips were transfected using Attractene Transfection Reagent (Qiagen, Germany) according to the manufacturer's instructions and used 2 to 3 days later.
Inside‐out patch clamp recordings were made at room temperature (23°C) from transiently transfected HEK293T cells, as described previously.[11] The pipette solution contained, in mM, 140 NaCl, 4 KCl, 2 CaCl2, 2 MgCl2, and 10 HEPES adjusted to pH 7.4 with NaOH. […] KCNT1 currents were recorded using 2 voltage protocols, depending on the number of active channels in the patch before drug application. Macroscopic currents (number of active channels > 15) were recorded in response to 100 ms voltage ramps between −120 and 120 mV applied every 2 seconds from a holding potential of −78 mV. […] With a lower number of active channels in the patch (3–15), current traces were recorded in response to 15‐second voltage steps to −20, 0, and 20 mV from a holding potential of −78 mV. Currents recorded at each voltage and each drug concentration were averaged over the duration of the trace and normalized to the average amplitudes of the corresponding current traces in drug‐free solution. […] Single channel data were analyzed using Ana software developed by Dr Michael Pusch (Istituto di Biofisica, Genova, Italy; http://users.ge.ibf.cnr.it/pusch/programs-mik.htm). […]

SMILES | IC50 [nM]
O=C(OCCN1CCN(c2cccc(C(F)(F)F)c2)CC1)c1ccccc1Nc1ccnc2cc(C(F)(F)F)ccc12 [antrafenine] | 12.3 ± 3.9
CC(C)c1c(C(=O)Nc2ccccc2)c(-c2ccccc2)c(-c2ccc(F)cc2)n1CC[C@@H](O)C[C@@H](O)CC(=O)O [atorvastatin] | 1200 ± 300
Cc1c(O)cccc1C(=O)N[C@@H](CSc1ccccc1)[C@H](O)CN1C[C@H]2CCCC[C@H]2C[C@H]1C(=O)NC(C)(C)C [nelfinavir mesylate] | 8 ± 1.1
